{
  "source": "patent US20170304336A1",
  "about": "“COMBINATION” (priority 2014, published 2017)",
  "key": {"[1]": {"tested_on": "experimental rat hypercholesterolemia model", "assay": "Biochemical blood analysis (drug toxicity parameters) in rat hypercholesterolemia model", "format": "in vivo, male rats of Wistar line", "summary_of_the_method": "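Serum AST, ALT, creatine phosphokinase, amylase, urea, total/direct/indirect bilirubin, glucose, K+ and Na+ measured by analyzer in tail-vein blood drawn after 14-15 h fast (9.00-11.00). Hypercholesterolemia induced by 90-day cholesterol/cholic acid/overheated-fat diet; daily intragastric dosing on Days 31-90.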"}, "[2]": {"tested_on": "experimental rat hypercholesterolemia model", "assay": "Lipid spectrum of blood in experimental rat hypercholesterolemia model", "format": "in vivo, male rats of Wistar line", "conditions": "dose 90 mg", "summary_of_the_method": "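Male Wistar rats fed a cholesterol, cholic acid and overheated-fat diet ad libitum for 90 days. Drugs given intragastrically daily on Days 31-90. Serum total cholesterol, LDL-CHS, HDL-CHS and triglycerides measured in tail-vein blood after 14-15 h fasting.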"}, "[3]": {"assay": "Mass coefficients of organs (pancreas, liver, kidneys) of rats", "format": "in vivo, male rats of Wistar line", "conditions": "M ± m, GA 90 mg; for weight coefficient, Kidneys / weight coefficient, Liver: in %", "procedure": "To calculate mass coefficients the pancreas, liver and kidneys of the animals were extracted. The organs were weighed and the mass coefficients were calculated by the following formula:\nMass coefficient=(organ weight/animal body weight)×100%"}, "[4]": {"assay": "Stability of statin/glycyrrhizic acid molecular complexes by content of glycyrrhizic acid", "format": "physicochemical", "conditions": "interval between testing points 7 months; European Pharmacopoeia 7.0 methodology", "procedure": "Stability of these complexes was determined on the basis of quantitative content of glycyrrhizic acid (in percentage form). The interval between the testing points was 7 months. The testing methodology was taken from European Pharmacopoeia 7.0. […] This decline is related both to the conditions of synthesis (maximum decline observed for liquid-phase synthesis) and to the properties of the active ingredient itself."}, "[5]": {"conditions": "Day 30 of treatment (Day 60 of study), dose 90 mg"}, "[6]": {"conditions": "blood, Day 60 of the treatment (Day 90 of the study), AV + GA 10 + 90 mg, AV 10 mg, GA 90 mg"}, "[7]": {"conditions": "blood, Day 60 of the treatment (Day 90 of the study), FV + GA 80 + 90 mg, FV 80 mg, GA 90 mg"}, "[8]": {"conditions": "Day 30 of treatment (Day 60 of study)"}, "[9]": {"conditions": "Day 60 of treatment (Day 90 of study)"}},
  "note": "Values joined by “and” are separate entries in the source; they are usually repeats but may differ in a detail not shown here. Identical values can stand only once.",
  "data": [
    {"smiles": "CC1(C)[C@@H](O[C@H]2O[C@H](C(=O)O)[C@@H](O)[C@H](O)[C@H]2O[C@@H]2O[C@H](C(=O)O)[C@@H](O)[C@H](O)[C@H]2O)CC[C@]2(C)[C@H]3C(=O)C=C4[C@@H]5C[C@@](C)(C(=O)O)CC[C@]5(C)CC[C@@]4(C)[C@]3(C)CC[C@@H]12", "note": "[GA, (3β,18α)-30-hydroxy-11,30-dioxoolean-12-en-3-yl 2-O-β-D-glucopyranuronosyl-β-D-glucopyranosiduronic acid]", "values": [
      {"measurement": "ALT", "setting": "[1]; [5]", "value": 100, "unit": "U/l"},
      {"measurement": "AST", "setting": "[1]; [5]", "value": "125 U/l and 132 U/l"},
      {"measurement": "Amylase", "setting": "[1]; [5]", "value": 618, "unit": "U/l"},
      {"measurement": "Bilirubin direct", "setting": "[1]; [5]", "value": 2.2, "unit": "mg/dL"},
      {"measurement": "Bilirubin indirect", "setting": "[1]; [5]", "value": 1.4, "unit": "mg/dL"},
      {"measurement": "Bilirubin total", "setting": "[1]; [5]", "value": 4.5, "unit": "mg/dL"},
      {"measurement": "CPK", "setting": "[1]; [5]", "value": 320, "unit": "U/l"},
      {"measurement": "Glucose", "setting": "[1]; [5]", "value": 111, "unit": "mg/dL"},
      {"measurement": "Potassium", "setting": "[1]; [5]", "value": 2.2, "unit": "mM"},
      {"measurement": "Sodium", "setting": "[1]; [5]", "value": 135, "unit": "mmol"},
      {"measurement": "Urea", "setting": "[1]; [5]", "value": 5.7, "unit": "mmol/L"},
      {"measurement": "ALT", "setting": "[1]; [6]", "value": 103, "unit": "U/l"},
      {"measurement": "AST", "setting": "[1]; [6]", "value": 115, "unit": "U/l"},
      {"measurement": "Amylase", "setting": "[1]; [6]", "value": 600, "unit": "U/l"},
      {"measurement": "Bilirubin direct", "setting": "[1]; [6]", "value": 2.2, "unit": "mg/dL"},
      {"measurement": "Bilirubin indirect", "setting": "[1]; [6]", "value": 1.8, "unit": "mg/dL"},
      {"measurement": "Bilirubin total", "setting": "[1]; [6]", "value": 4.3, "unit": "mg/dL"},
      {"measurement": "CPK", "setting": "[1]; [6]", "value": 233, "unit": "U/l"},
      {"measurement": "Glucose", "setting": "[1]; [6]", "value": 116, "unit": "mg/dL"},
      {"measurement": "Potassium", "setting": "[1]; [6]", "value": 3.1, "unit": "mM"},
      {"measurement": "Sodium", "setting": "[1]; [6]", "value": 123, "unit": "mmol"},
      {"measurement": "Urea", "setting": "[1]; [6]", "value": 5.0, "unit": "mmol/L"},
      {"measurement": "ALT", "setting": "[1]; [7]", "value": 103, "unit": "U/l"},
      {"measurement": "AST", "setting": "[1]; [7]", "value": 121, "unit": "U/l"},
      {"measurement": "Amylase", "setting": "[1]; [7]", "value": 600, "unit": "U/l"},
      {"measurement": "Bilirubin direct", "setting": "[1]; [7]", "value": 2.2, "unit": "mg/dL"},
      {"measurement": "Bilirubin indirect", "setting": "[1]; [7]", "value": 1.8, "unit": "mg/dL"},
      {"measurement": "Bilirubin total", "setting": "[1]; [7]", "value": 4.3, "unit": "mg/dL"},
      {"measurement": "CPK", "setting": "[1]; [7]", "value": 233, "unit": "U/l"},
      {"measurement": "Glucose", "setting": "[1]; [7]", "value": 116, "unit": "mg/dL"},
      {"measurement": "Potassium", "setting": "[1]; [7]", "value": 3.1, "unit": "mM"},
      {"measurement": "Sodium", "setting": "[1]; [7]", "value": 123, "unit": "mmol"},
      {"measurement": "Urea", "setting": "[1]; [7]", "value": 5.0, "unit": "mmol/L"},
      {"measurement": "HDL CHS", "setting": "[2]; [8]", "value": "0.63 ± 0.04", "unit": "mmol/L"},
      {"measurement": "LDL CHS", "setting": "[2]; [8]", "value": "4.00 ± 0.3", "unit": "mmol/L"},
      {"measurement": "TG", "setting": "[2]; [8]", "value": "1.6 ± 0.10", "unit": "mmol/L"},
      {"measurement": "Total CHS", "setting": "[2]; [8]", "value": "5.2 ± 0.5", "unit": "mmol/L"},
      {"measurement": "HDL CHS", "setting": "[2]; [9]", "value": "0.73 ± 0.04", "unit": "mmol/L"},
      {"measurement": "LDL CHS", "setting": "[2]; [9]", "value": "3.90 ± 0.3", "unit": "mmol/L"},
      {"measurement": "TG", "setting": "[2]; [9]", "value": "1.6 ± 0.10", "unit": "mmol/L"},
      {"measurement": "Total CHS", "setting": "[2]; [9]", "value": "4.5 ± 0.5", "unit": "mmol/L"},
      {"measurement": "weight coefficient, Pancreas", "setting": "[3]; AV + GA 10 + 90 mg, AV 20 mg", "value": "0.20 ± 0.01^2"},
      {"measurement": "weight coefficient, Kidneys", "setting": "[3]; AV + GA 10 + 90 mg, AV 20 mg", "value": "0.80 ± 0.01"},
      {"measurement": "weight coefficient, Liver", "setting": "[3]; AV + GA 10 + 90 mg, AV 20 mg", "value": "4.41 ± 0.09"},
      {"measurement": "weight coefficient, Pancreas", "setting": "[3]; FV + GA 80 + 90 mg, FV 80 mg", "value": "0.23 ± 0.01^2"},
      {"measurement": "weight coefficient, Kidneys", "setting": "[3]; FV + GA 80 + 90 mg, FV 80 mg", "value": "0.80 ± 0.03"},
      {"measurement": "weight coefficient, Liver", "setting": "[3]; FV + GA 80 + 90 mg, FV 80 mg", "value": "4.42 ± 0.09"},
      {"measurement": "stability with regard to time (content of glycyrrhizic acid)", "setting": "[4]", "value": "unstable"}
    ]}
  ]
}
